The values below come from PubChem BioAssay (NCI).

Test systems include ACHN renal; COLO 205 colon; EKVX NSCLC; HCC-2998 colon; K-562 leukemia; NCI-H460 lung; NCI-H522 lung; SN12C renal; UACC-62 melanoma; KM12 colon.
What all share (assay): NCI-60 cell line screen, 48 h

Each structure is given as a SMILES string. Where “and” joins values, the source holds several entries; their conditions need not be identical. Equal values may be shown once.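 Values below derive from 48-hour exposures of cells grown in 96-well plates, with endpoints linearly interpolated between the two concentrations bracketing the appropriate inhibition level. GI50 = concentration required for 50% inhibition of growth. TGI marks complete inhibition of growth.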 *1 amine or outer side, *2 acyl side, *3 side chain or, on linkers, in order; H or OH if unused. Where a SMILES comes first, the peptide text is derived from it. Bridges are numbered along the chain shown (N, C = ends). Roman numbers before positions name the chains, in order. [ ]: non-standard residue; d: D form. Actinocin(9to1) = Cc1c2oc3c(C)ccc(C(=O)[*:1])c3nc-2c(C(=O)[*:2])c(N)c1=O; NMeF = CN[CH](Cc1ccccc1)C(=O)O; Sar = CNCC(=O)O

For the compound `Cc1c2oc3c(C)ccc(C(=O)NC4C(=O)NC(C(C)C)C(=O)N5CCCC5C(=O)N(C)CC(=O)N(C)C(Cc5ccccc5)C(=O)OC4C)c3nc-2c(C(=O)NC2C(=O)NC(C(C)C)C(=O)N3CCCC3C(=O)N(C)CC(=O)N(C)C(Cc3ccccc3)C(=O)OC2C)c(N)c1=O` (stereo not given) (I: TVP[Sar][NMeF] / II: TVP[Sar][NMeF]; ester I:1-I:C, II:1-II:C; linker I:N-II:N via Actinocin(9to1); configuration not given here), the TGI with ACHN renal was greater than 1 µM; in the assay on COLO 205 colon, 0.0266 µM; in the assay with EKVX NSCLC, 0.0931 µM and > 0.603 µM; with HCC-2998 colon, < 0.01 µM and 0.0486 µM; in the assay with NCI-H460 lung, < 0.01 µM and 0.0206 µM; with NCI-H522 lung, 0.0201 µM. Also, in the assay on UACC-62 melanoma, the TGI was < 0.01 µM and 0.0188 µM. Further, the GI50 in the assay on COLO 205 colon is 0.00372 µM; in the assay with EKVX NSCLC, < 0.01 µM and 0.0389 µM; with K-562 leukemia, 0.00115 µM; in the assay with NCI-H460 lung, < 0.01 µM and 0.00074 µM; in the assay with NCI-H522 lung, 0.00155 µM; in the assay on SN12C renal, < 0.01 µM and 0.00213 µM. Further, in the assay with UACC-62 melanoma, the GI50 was < 0.01 µM and 0.00426 µM.
On to `COc1ccccc1C(=O)N(C)c1ccc(Cl)c(C(=O)OC(C)C)c1`, for which the TGI with ACHN renal is greater than 100 µM; in the assay with COLO 205 colon it was greater than 100 µM; with EKVX NSCLC, greater than 100 µM; with HCC-2998 colon it was greater than 100 µM; in the assay with KM12 colon, 68.7 µM; with NCI-H460 lung, greater than 100 µM. In addition, the TGI in the assay with NCI-H522 lung, in the assay with SN12C renal and in the assay on UACC-62 melanoma was greater than 100 µM each time.
As to `O=C(CC/C(CC(=O)c1ccc(Br)cc1)=N\O)Nc1ccc(Cl)c(Cl)c1`, the TGI in the assay on ACHN renal, in the assay on COLO 205 colon, in the assay with EKVX NSCLC, in the assay on HCC-2998 colon, in the assay with K-562 leukemia and in the assay on KM12 colon was greater than 100 µM throughout. Further, the TGI in the assay on NCI-H460 lung was greater than 100 µM; in the assay on NCI-H522 lung, 53.5 µM; in the assay on SN12C renal it was greater than 100 µM; in the assay with UACC-62 melanoma, greater than 100 µM.
As for `CC(=O)[O-].O=C([CH-]C(=O)c1ccccc1)c1ccccc1.O=C([CH-]C(=O)c1ccccc1)c1ccccc1.[Sm+3]`, the GI50 in the assay with ACHN renal was 4.96 µM; in the assay with COLO 205 colon it was 7.89 µM; in the assay on EKVX NSCLC, 2.11 µM; in the assay with HCC-2998 colon, 3.81 µM; in the assay on K-562 leukemia, 3.68 µM; in the assay with KM12 colon it was 1.63 µM. Besides, the GI50 with NCI-H460 lung was 2.54 µM; with NCI-H522 lung, 1.43 µM; with SN12C renal, 6.23 µM; in the assay on UACC-62 melanoma, 3.73 µM. Moreover, the TGI with ACHN renal was found to be 25.3 µM; in the assay on COLO 205 colon, 22.8 µM; with EKVX NSCLC it was 16.6 µM; in the assay with HCC-2998 colon, 14.6 µM; with K-562 leukemia, 27.4 µM; with KM12 colon it was 21.2 µM. Also, the TGI with NCI-H460 lung came out at 82.6 µM; in the assay with NCI-H522 lung, 7.49 µM; in the assay on SN12C renal, 24.8 µM; in the assay with UACC-62 melanoma, 19.8 µM.
Take `Nc1ncc(-c2cccc(S(N)(=O)=O)c2)c2scc(-c3ccc(F)c(Cl)c3)c12`: the GI50 in the assay with ACHN renal was 6.36 µM; with COLO 205 colon, 5.92 µM; in the assay with EKVX NSCLC, 7.75 µM; in the assay with HCC-2998 colon, 6.7 µM; in the assay with K-562 leukemia, 0.705 µM; in the assay on KM12 colon, 5.56 µM. Also, the GI50 in the assay with NCI-H460 lung is 3.8 µM; in the assay on NCI-H522 lung, 3.74 µM; in the assay with SN12C renal, 5.74 µM; in the assay on UACC-62 melanoma it was 5.17 µM. The TGI was greater than 25 µM in the assay on ACHN renal; 11.8 µM in the assay with COLO 205 colon; greater than 24.2 µM in the assay with EKVX NSCLC; 13.3 µM with HCC-2998 colon; greater than 11.7 µM in the assay with K-562 leukemia; 14.7 µM in the assay with KM12 colon. Besides, the TGI was 8.08 µM in the assay on NCI-H460 lung, 7.74 µM in the assay with NCI-H522 lung, greater than 23.2 µM with SN12C renal and 11.7 µM in the assay on UACC-62 melanoma.
On to `Cn1c(=O)c2/c(n(C)c1=O)=N\C=c1\c(=O)n(C)c(=O)n(C)\c1=N\C=2`, for which the TGI in the assay with ACHN renal, in the assay with COLO 205 colon, with EKVX NSCLC, with HCC-2998 colon, with K-562 leukemia and in the assay on KM12 colon was greater than 100 µM throughout. Besides, the TGI with NCI-H460 lung, in the assay on NCI-H522 lung, in the assay with SN12C renal and with UACC-62 melanoma was greater than 100 µM in each case.
For `COc1cc(NC(=O)C2=C(N3CCOCC3)/C(=C/c3ccc(Cl)cc3)CC2)cc(OC)c1OC`, the GI50 was 16.9 µM with ACHN renal; greater than 100 µM in the assay with COLO 205 colon; 24.9 µM in the assay with EKVX NSCLC; 38.9 µM in the assay on HCC-2998 colon; greater than 100 µM with K-562 leukemia; greater than 100 µM in the assay on KM12 colon. The GI50 was greater than 100 µM in the assay on NCI-H460 lung, 17.2 µM in the assay on NCI-H522 lung, 94.3 µM in the assay on SN12C renal and greater than 100 µM in the assay on UACC-62 melanoma. In addition, the TGI was 61.8 µM with ACHN renal; greater than 100 µM in the assay with COLO 205 colon; greater than 100 µM in the assay on EKVX NSCLC; greater than 100 µM with HCC-2998 colon; greater than 100 µM in the assay on K-562 leukemia; greater than 100 µM in the assay with KM12 colon. Besides, the TGI in the assay on NCI-H460 lung, in the assay on NCI-H522 lung, in the assay on SN12C renal and in the assay with UACC-62 melanoma was greater than 100 µM throughout.
In the case of `C=C1C(=O)O[C@H]2[C@H]1CC/C(COC(=O)NCc1ccc(Cn3c(=O)sn(-c4ccccc4)c3=O)cc1)=C\CC[C@@]1(C)O[C@@H]21`, the GI50 in the assay on ACHN renal was 1.64 µM; in the assay on COLO 205 colon it was 1.77 µM; with EKVX NSCLC it was 1.85 µM; with HCC-2998 colon it was 1.99 µM; in the assay with K-562 leukemia, 1.8 µM; with KM12 colon it was 3.46 µM. Further, the GI50 is 3.67 µM in the assay with NCI-H460 lung, 1.74 µM with NCI-H522 lung, 2.14 µM in the assay with SN12C renal and 2.04 µM with UACC-62 melanoma. Besides, the TGI with ACHN renal is 3.14 µM; in the assay with COLO 205 colon, 3.44 µM; in the assay with EKVX NSCLC, 4.38 µM; in the assay with HCC-2998 colon, 3.82 µM; with K-562 leukemia, greater than 100 µM; in the assay with KM12 colon, 12.7 µM. Besides, the TGI in the assay with NCI-H460 lung amounted to 12.4 µM; with NCI-H522 lung it was 3.48 µM; in the assay with SN12C renal, 5.1 µM; in the assay with UACC-62 melanoma it was 4.15 µM.
As for `O=C(O)/C(=C\c1ccncc1)c1cccc2ccccc12`, the TGI with COLO 205 colon, with EKVX NSCLC, in the assay on K-562 leukemia, with KM12 colon, with NCI-H460 lung and in the assay on NCI-H522 lung was greater than 100 µM each time. Further, in the assay with SN12C renal, the TGI is greater than 100 µM.
